Each block holds one substance with its values, some of them ahead of it.
What was measured:
[1] = molecular target: T1, GIP receptors (Homo sapiens, UniProt P48546); test: In vitro GIP receptor autoradiography: displacement of 125I-GIP(1-30) in tissue sections; assay type: binding; conditions: increasing concentrations of cold peptide; tumor and normal pancreatic islets, all examples
T1 construct: from tissue; host or cells: fresh frozen human tumor tissue (neuroendocrine tumors) and non-neoplastic human tissue (pancreatic islets) from surgical resection
T1 sequence (P48546 22-466): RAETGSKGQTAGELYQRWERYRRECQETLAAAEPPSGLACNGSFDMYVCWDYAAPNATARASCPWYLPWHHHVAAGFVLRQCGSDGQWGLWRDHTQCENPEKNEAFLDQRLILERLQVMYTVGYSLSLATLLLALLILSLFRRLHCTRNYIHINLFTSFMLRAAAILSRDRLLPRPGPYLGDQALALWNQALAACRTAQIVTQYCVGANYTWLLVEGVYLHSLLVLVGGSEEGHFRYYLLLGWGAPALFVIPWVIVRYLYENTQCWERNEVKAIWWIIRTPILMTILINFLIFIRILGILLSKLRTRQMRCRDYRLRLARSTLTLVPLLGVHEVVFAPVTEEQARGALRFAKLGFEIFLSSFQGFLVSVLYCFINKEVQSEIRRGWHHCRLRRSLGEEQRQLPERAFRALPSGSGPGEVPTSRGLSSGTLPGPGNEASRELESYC
Protocol: It was radiolabeled by the lactoperoxidase method and purified by HPLC (Anawa, Wangen, Switzerland). The two lodo-Tyrosine analogues (peak 1 iodinated at Tyr^1 and peak 2 iodinated at Tyr^10) were analyzed by LC-ESI-MS-MS (R. Brunisholz, Functional Genomics Center Zürich, ETHZ). […] After incubation, the slides were washed five times in ice-cold Tris-HCl buffer (170 mM; pH 8.2) containing 0.25% BSA and twice in ice-cold Tris-HCl buffer without BSA. The slides were dried for 15 minutes under a stream of cold air and then exposed to Kodak films Biomax MR® for seven days at 4° C. The signals on the films were analyzed in correlation with morphology using corresponding H&E stained tissue slides. The receptor density was quantitatively assessed using tissue standards for iodinated compounds (Amersham, Aylesbury, UK) and a computer-assisted image processing system (Analysis Imaging System, Interfocus, Mering, Germany).

[2] = cited from earlier work; for biological activity: truncated forms of GIP
[3] = tested on: islet cells; test: β-Cell imaging with GIP radioligands, ex vivo pancreas autoradiography; assay type: in vivo, Sprague-Dawley rats; conditions: i.v., with or without unlabeled GIP(1-30); autoradiography correlated with insulin immunostaining
Description: Animals were euthanized and the pancreas was extracted, immediately frozen, and sectioned. The sections were apposed to radiosensitive films, scanned, and immunostained for insulin.

[4] = tested on: GIP receptor; conditions: cited from earlier work
[5] = tested on: GIP receptor; conditions: cited from earlier work; remark: listed apart in the source
[6] = tested on: TT cells (human medullary thyroid cancer cells); conditions: 1 nM to 1000 nM GIP for 3 hours, supernatant
Protocol: Calcitonin levels (C, pg/ml) were determined from the cell supernatant using the Calcitonin-kit from Siemens.
TT cells (derived from a human medullary thyroid carcinoma; ATCC Number: CRL-1803) were plated in 24-well plates (100′000 cells per well) and cultured for 48 hours in growth medium (nutrient mixture F12 Ham Kaighn's modification containing L-glutamine and supplemented with 10% fetal bovine serum) at 37° C. and 5% CO2. Subsequently the growth medium was replaced by the serum-free challenge medium (RPMI 1640, 10 mM HEPES and GlutaMax-I) and the cells were incubated for further 48 hours at 37° C. and 5% CO2. […] As negative control cells were treated with challenge medium containing vehicle alone. The cells were incubated for 3 hours at 37° C. and 5% CO2.

displacement of 125I-GIP(1-30) (affinity) [1]: not displaced
Substance: glucagon(1-29): glucagon receptor selective agonist (Bachem)

Substance: GIP1-39: truncated form of GIP (YAEGTFISDYSIAMDKIHQQDFVNWLLAQKGKKNDWKHN; Gastric inhibitory polypeptide; UniProt P09681 52-90, looked up, fragment)
biological activity [2]: retain a high degree of biological activity

Substance: ^111In-DOTA-GIP(1-30): GIP(1-30) carrying 111In complexed through DOTA chelator; GIP radioligand for β-cell imaging
localisation of radioligand binding in pancreas [3]: restricted to islet cells

displacement of 125I-GIP(1-30) (affinity) [1]: not displaced
Substance: GLP-2: GLP-2 receptor selective agonist (Bachem)

Substance: GIP6-30: GIP fragment binding with high affinity, antagonist (FISDYSIAMDKIHQQDFVNWLLAQK; Gastric inhibitory polypeptide; UniProt P09681 57-81, looked up, fragment)
receptor binding [4]: high affinity
functional mode at the GIP receptor [5]: act as antagonists

Substance: GIP7-30-NH2: GIP fragment amide binding with high affinity, antagonist
receptor binding [4]: high affinity
functional mode at the GIP receptor [5]: act as antagonists

Substance: GIP19-30: C-terminal GIP fragment capable of receptor binding (QQDFVNWLLAQK; Gastric inhibitory polypeptide; UniProt P09681 70-81, looked up, fragment)
receptor binding [4]: capable of receptor binding
activation of adenylyl cyclase [5]: activation of adenylyl cyclase

Substance: GIP3-42: peptide resulting from cleavage of GIP by DPP-IV; antagonist (EGTFISDYSIAMDKIHQQDFVNWLLAQKGKKNDWKHNITQ; Gastric inhibitory polypeptide; UniProt P09681 54-93, looked up, fragment)
insulinotropic activity ([2]; product of DPP-IV cleavage): lacking insulinotropic activity
functional mode at the GIP receptor [5]: antagonist of GIP1-42 induced cAMP production

Substance: GIP1-14: GIP fragment capable of receptor binding (YAEGTFISDYSIAM; Gastric inhibitory polypeptide; UniProt P09681 52-65, looked up, fragment)
receptor binding [4]: capable of receptor binding
activation of adenylyl cyclase [5]: activation of adenylyl cyclase

Substance: glucose-dependent insulinotropic polypeptide [GIP]
calcitonin release [6]: stimulates calcitonin release

Substance: GIP(1-30): truncated form of GIP; cold human GIP(1-30), parent peptide of the radioligand (YAEGTFISDYSIAMDKIHQQDFVNWLLAQK; Gastric inhibitory polypeptide; UniProt P09681 52-81, looked up, fragment)
biological activity [2]: retain a high degree of biological activity
